{
  "source": "patent US9999612B2",
  "about": "“PPARs agonist activity enhancing drug” (Tsujimoto Chemical Co., Ltd., priority 2012, dated 2018)",
  "key": {"PPARα [1]": {"target": "T1, PPARα (Homo sapiens, UniProt Q07869)", "T1 construct": "endogenous in cells; host or cells: HepG2", "T1 sequence (Q07869 1-468)": "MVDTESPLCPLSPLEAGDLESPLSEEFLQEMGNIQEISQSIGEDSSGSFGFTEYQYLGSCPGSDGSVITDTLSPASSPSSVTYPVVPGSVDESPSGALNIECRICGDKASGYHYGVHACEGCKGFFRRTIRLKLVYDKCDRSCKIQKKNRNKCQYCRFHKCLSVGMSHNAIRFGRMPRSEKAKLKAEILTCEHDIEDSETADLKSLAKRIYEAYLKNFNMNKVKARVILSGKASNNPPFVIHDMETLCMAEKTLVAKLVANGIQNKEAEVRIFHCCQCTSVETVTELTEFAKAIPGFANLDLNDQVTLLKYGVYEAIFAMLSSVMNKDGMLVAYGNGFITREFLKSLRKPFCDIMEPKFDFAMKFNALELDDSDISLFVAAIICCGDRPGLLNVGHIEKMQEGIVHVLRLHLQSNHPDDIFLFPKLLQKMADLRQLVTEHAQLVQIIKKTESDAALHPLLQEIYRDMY", "experiment": "Activity test using HepG2 cells: ACS and CPT1A gene expression (PPARα agonist activity)", "format": "cell-based", "conditions": "C11 at 50 μM and 25 μM, FIG. 4", "protocol": "Next, a novel compound C11 was focused, and further activity tests using HepG2 cells were carried out. […] In the figure, GAPDH represents a housekeeping indicator, ACS represents expression of lipid metabolism gene, and CPT1A represents expression of lipolytic gene. As a drug for comparison, Bezafibrate known as PPARα agonist activity enhancer was used with 50 μM dilution, and the compound C11 of the present invention was used at concentrations of 50 μM and 25 μM."}, "PPARγ [2]": {"test_system": "PPARγ", "experiment": "Differentiation induction method using 3T3-L1 cells: fat cell differentiation induction-associated gene expression (Adiponectine)", "format": "cell-based, mouse", "conditions": "25 μM, 12 μM and 6 μM, FIG. 5", "protocol": "Subsequently, an agonist activity test on fat cell differentiation induction-associated genes was similarly carried out for C11, and the results are shown in FIG. 5. In this test, the differentiation induction method using 3T3-L1 cells was conducted. For preparing samples, a plate having a total of 24 depressions of 6 lines×4 rows was used, and a known mouse fat cells was used to observe PPARγ agonist activities. In relation to 5 samples shown in the figure, in order from the right, a sample without insulin administration, a sample dosed with 1.7 μM of insulin, a sample dosed with 25 μM of C11 compound, a sample dosed with 12 μM of C11 compound and a sample dosed with 6 μM of C11 compound are shown. CAPDH is a housekeeping indicator, C/EBPα is a control, and Adiponectine is an expressed gene."}, "PPARδ": {"test_system": "PPARδ", "experiment": "PPARδ agonist activity, reporter gene assay using COS-1 cells", "format": "cell-based", "protocol": "(§1) The agonist activities of PPARα, PPARδ and PPARγ, respectively, were visually verified by a reporter gene assaying method using COS-1 cells so as to evaluate them. The evaluation method is as below.\n(§2) The COS-1 cells were collected by trypsinization, centrifuged (1000 rpm, 4° C., 3 min.), and then seeded on a 60 mm Petri dish for cultivation in a density of 6×10^5 cells/well. After cultivation at 37° C. under 5% CO2 for 24 hours, cells were transformed using […]® Transfection Reagent (QIAGEN®). EC buffer ([…]), pPPARα-GAL4 (0.25 μg), pPPARδ-GAL4 (0.25 μg) or pPPARγ-GAL4 (0.25 μg), p17M2G (1 μg), pSEAP control vector (1 μg) were put into a 1.5 ml Eppendorf tube, to which 18 μl of Enhancer was added, and stirred by a vortex for 1 second. This was left to stand at room temperature for 3 minutes, to which 25 μl of Effectene was added, stirred by the voltex for 10 seconds, and left to stand at room temperature for 7 minutes. Simultaneously, the medium for transformation in the 60 mm Petri dish for cultivation was removed, to which […] of medium was added to exchange the medium. Seven minutes later, 1 ml of medium was added to the Eppendorf tube, suspended twice, dropped to a 60 mm Petri dish for cultivation, and cultivated 37° C. under 5% CO2 for 16 hours.\n(§3) The cells were collected by trypsinization after 16 hours, centrifuged (1000 rpm, 4° C., 3 min.), and then suspended in 6 ml of medium, and seeded on a 96-well plate at 125 μl/well. The sample solution was added at 1.25 μl/well after 2-3 hours, and cultivated 37° C. under 5% CO2 for 24 hours. Then the medium was collected at 25 μl/well, a secreted alkaline phosphatase (SEAP) activity was measured using GREAT ESCAPE™ SEAP (Clontech Laboratories, Inc.) kit. As the outline, 1× dilution buffer was added at 25 μl/well, mildly stirred, sealed with a scotch tape, and incubated at 65° C. for 30 minutes. Subsequently, it was cooled at 4° C., and returned to room temperature, then an assay buffer was added at 90 μl/well. It was left to stand at room temperature for 5 minutes, to which 10 μl of MUP solution was added at 10 μl/well. At room temperature, it was left to stand in a dark room for 1 hour, and then fluorescence intensity based on 4-methylumbelliferyl phosphate (Ex=360 nm, Em=460 nm) was measured.\n(§4) Concentrations of the samples to be evaluated are 50 μM and 5 μM."}, "PPARα [3]": {"test_system": "PPARα", "experiment": "PPARα agonist activity, reporter gene assay using COS-1 cells", "format": "cell-based", "conditions": "for PPARα agonist activity, ratio to WY14643 50 μM (= 1.00): FIG. 1; for PPARα agonist activity: study of aliphatic chain length of δ-lactones; for difference between PPARα values of the R and S bodies: 25 μM, FIG. 6", "protocol": "as §1, §2, §3\n(§5) In order to measure the activity for PPARα, luciferase activity measuring cocktail (Invitrogen) was added to other 96 well plate at 100 μl/well to measure the emission intensity. Compensation among each well was performed by dividing the measured value of the luciferase activity by the SEAP activity value.\n7 to 9, i.e. C9 to C11 in which the α and β positions in the lactone ring of the raw material are substituted by double bonds, which are the compounds of the present invention. […] The structure of carbon number C8 lacks one side chain in the carbon number C9, and the structure of carbon number C12 adds one side chain to the carbon number C11, in which no double bond is provided. The carbon numbers C9 to C11 represents numbers of the carbon atoms in the compounds of Chemical formulae 4 to 6 and Chemical formulae 7 to 9."}, "PPARγ [4]": {"test_system": "PPARγ", "experiment": "PPARγ agonist activity, reporter gene assay using COS-1 cells", "format": "cell-based", "conditions": "for PPARγ agonist activity compared with control substance 10 μM Trogliazone: 50 μM", "protocol": "as §1, §2, §3, §4"}, "PPARs": {"test_system": "PPARs", "experiment": "PPARs agonist activity, collective evaluation (PPARα, δ and γ)", "format": "cell-based", "conditions": "for difference between activities of the R body and the S body, three PPARs: FIG. 6, three tests averaged", "protocol": "as §1, §2\nThe cells were collected by trypsinization after 16 hours, centrifuged (1000 rpm, 4° C., 3 min.), and then suspended in 6 ml of medium, and seeded on a 96-well plate at 125 μl/well. […] Then the medium was collected at 25 μl/well, a secreted alkaline phosphatase (SEAP) activity was measured using GREAT ESCAPE™ SEAP (Clontech Laboratories, Inc.) kit. […] At room temperature, it was left to stand in a dark room for 1 hour, and then fluorescence intensity based on 4-methylumbelliferyl phosphate (Ex=360 nm, Em=460 nm) was measured.\nas §5"}, "[5]": {"conditions": "study of aliphatic chain length of δ-lactones"}},
  "data": [
    {"smiles": "CCCCCCC1CC=CC(=O)O1", "note": "(stereo not shown) [C11, 6-hexyl-5,6-dihydro-2H-pyran-2-one]", "values": [
      {"measurement": "gene expression (ACS, CPT1A) compared with Bezafibrate 50 μM", "setting": "PPARα [1]", "result": "at least equal to or greater than that of Bezafibrate"},
      {"measurement": "activity on fat cell differentiation induction-associated genes (Adiponectine expression)", "setting": "PPARγ [2]", "result": "effective activities"}
    ]},
    {"smiles": "CCCC1CCCC(=O)O1", "note": "(stereo not shown) [C8, 6-propyltetrahydro-2H-pyran-2-one]", "values": [
      {"measurement": "PPARδ agonist activity", "setting": "PPARδ; 5 μM, FIG. 2", "result": "little activity"},
      {"measurement": "PPARα agonist activity, ratio to WY14643 50 μM (= 1.00)", "setting": "PPARα [3]; 5 μM", "result": "can hardly be expected for the activity"},
      {"measurement": "PPARγ agonist activity", "setting": "PPARγ [4]; 5 μM, FIG. 3", "result": "little activities"},
      {"measurement": "PPARγ agonist activity compared with control substance 10 μM Trogliazone", "setting": "PPARγ [4]; FIG. 3", "result": "considerably lower activities than the values of C9 to C11"}
    ]},
    {"smiles": "Cc1cccc(Nc2cc(Cl)nc(SCC(=O)O)n2)c1C", "note": "[WY14643]", "values": [
      {"measurement": "PPARα agonist activity, ratio to WY14643 50 μM (= 1.00)", "setting": "PPARα [3]; 50 μM", "result": 1.00}
    ]},
    {"smiles": "CCCCC1CCCC(=O)O1", "note": "(stereo not shown) [δ-nonanolactone, 6-butyltetrahydro-2H-pyran-2-one]", "values": [
      {"measurement": "PPARδ agonist activity", "setting": "PPARδ; [5]", "result": "strong agonist activity"},
      {"measurement": "PPARα agonist activity", "setting": "PPARα [3]", "result": "strong agonist activity"},
      {"measurement": "PPARγ agonist activity", "setting": "PPARγ [4]; [5]", "result": "strong agonist activity"}
    ]},
    {"smiles": "CCCCCCC1CCCC(=O)O1", "note": "(stereo not shown) [δ-undecanolactone, 6-hexyltetrahydro-2H-pyran-2-one]", "values": [
      {"measurement": "PPARδ agonist activity", "setting": "PPARδ; [5]", "result": "strong agonist activity"},
      {"measurement": "PPARα agonist activity", "setting": "PPARα [3]", "result": "strong agonist activity"}
    ]},
    {"smiles": "CCCCCCCC1CCCC(=O)O1", "note": "(stereo not shown) [C12, 6-heptyltetrahydro-2H-pyran-2-one]", "values": [
      {"measurement": "PPARδ agonist activity", "setting": "PPARδ; 5 μM, FIG. 2", "result": "little activity"},
      {"measurement": "PPARα agonist activity, ratio to WY14643 50 μM (= 1.00)", "setting": "PPARα [3]; 5 μM", "result": "did not show strong activity"},
      {"measurement": "PPARα agonist activity, ratio to WY14643 50 μM (= 1.00)", "setting": "PPARα [3]; 50 μM", "result": "did not show strong activity"},
      {"measurement": "PPARγ agonist activity", "setting": "PPARγ [4]; 5 μM, FIG. 3", "result": "little activities"},
      {"measurement": "PPARγ agonist activity compared with control substance 10 μM Trogliazone", "setting": "PPARγ [4]; FIG. 3", "result": "considerably lower activities than the values of C9 to C11"}
    ]},
    {"smiles": "CCCCC[C@H]1CC=CC(=O)O1", "note": "[S body, (S)-6-pentyl-5,6-dihydro-2H-pyran-2-one]", "values": [
      {"measurement": "difference between PPARα values of the R and S bodies", "setting": "PPARα [3]", "result": "significant difference"},
      {"measurement": "difference between activities of the R body and the S body, three PPARs", "setting": "PPARs", "result": "no significant difference"}
    ]},
    {"smiles": "CCCCCC1CCCC(=O)O1", "note": "(stereo not shown) [δ-decanolactone, 6-pentyltetrahydro-2H-pyran-2-one]", "values": [
      {"measurement": "PPARδ agonist activity", "setting": "PPARδ; [5]", "result": "strong agonist activity"},
      {"measurement": "PPARα agonist activity", "setting": "PPARα [3]", "result": "strong agonist activity"},
      {"measurement": "activity of lactone structures (ring size comparison γ, δ, ϵ)", "setting": "PPARs; comparison of γ-, δ- and ϵ-decanolactone", "result": "relatively strong activity"},
      {"measurement": "PPARγ agonist activity", "setting": "PPARγ [4]; [5]", "result": "strong agonist activity"}
    ]},
    {"smiles": "CCCCC[C@@H]1CC=CC(=O)O1", "note": "[R body, (R)-6-pentyl-5,6-dihydro-2H-pyran-2-one]", "values": [
      {"measurement": "difference between PPARα values of the R and S bodies", "setting": "PPARα [3]", "result": "significant difference"},
      {"measurement": "difference between activities of the R body and the S body, three PPARs", "setting": "PPARs", "result": "no significant difference"}
    ]}
  ]
}
